According to US7700543B2, “Use NF-κB inhibition in combination therapy for cancer” (The University of North Carolina at Chapel Hill, priority 1997, dated 2010):
“Also recorded” adds a separate entry of the source. Peptide text beside a SMILES is read from it. * marks the point of attachment. Cbz = O=C(OCc1ccccc1)*

What was measured:
[1] = tested on: HT1080 fibrosarcoma cells; assay: Cell survival by crystal violet assay in HT1080V and HT1080I cells; type: cell-based, human
Protocol: HT1080V (open squares) and HT1080I cells (solid diamonds) were treated with TNFα (20 ng/ml) for varying times and surviving cells were quantified by crystal violet assay (Mehlen et al., EMBO J. 15:2695 (1996)). Data shown (FIG. 1A) are the mean of three independent experiments ±SD, and the percentage cell survival was defined as the relative number of TNF treated versus untreated cells.
HT1080V and HT1080I cells were preincubated with 10 ng/ml IL-1β (R & D Systems) for 5 hours (+Pre IL-1), or were left untreated. Cells were then treated with 10 μg/ml cycloheximide (CHX) and different concentrations of TNFα (0-50 ng/ml). Surviving cells were quantified by crystal violet assay (Mehlen et al., EMBO J. 15:2695 (1996)). […] Open squares represent HT1080V cells without IL-1 pretreatment; closed squares represent HT1080V cells pretreated with IL-1; circles represent HT1080I cells without IL-1 pretreatment; triangles represent HT1080I cells pretreated with IL-1.

NF-κB [2] = assay: NF-κB activation by CPT-11 (data not shown); type: cell-based
[3] = tested on: HT1080V and HT1080I cells; assay: Cell viability of HT1080V and HT1080I cells treated with cytotoxic agent (data not shown); type: cell-based, human
Protocol: The present inventors' preliminary data additionally indicate that cell killing by vincristine is augmented by the inhibition of NF-κB (data not shown). HT1080V and HT1080I cells were treated with vincristine and cell viability was determined.

NF-κB [4] = assay: Electrophoretic mobility-shift assay (EMSA) of NF-κB nuclear translocation in HT1080V and HT1080I cells; type: cell-based, human
Protocol: HT1080 fibrosarcoma cells were co-transfected with the pCMV empty vector to produce control cells HT1080V; HT1080 cells co-transfected with the pCMV vector containing a cDNA encoding the super-repressor IκBα and with the pCEP4 vector for hygromycin B selection (400 μg/ml) provided HT1080I cells that expressed the super-repressor IκBα.

HT1080V cells = assay: Cell viability experiments, enhancement of TNF-induced cell killing by proteasome inhibitor; type: cell-based, human; conditions: dose-dependent, data not shown
Source text: The effect of a proteasome inhibitor on TNF-treated cells was investigated. Proteasome inhibitors of the peptide aldehyde category are potent inhibitors of NF-κB activation (Palombello et al., Cell 78:773 (1994); Chen et al., Genes Dev. 9:1586 (1995)). […] Cell viability experiments were used to monitor the effectiveness of MG132 in enhancing TNF-induced cell killing.

[5] = tested on: HT1080 fibrosarcoma cells; assay: TNF-induced apoptosis detected by TUNEL staining; type: cell-based, human; conditions: 50 ng/ml TNFα for 7 hr; HT1080V and HT1080I cells; FIG. 1B
Protocol: TNF-induced apoptosis was detected by TUNEL staining (Graeber et al., Nature 379:88 (1996)). HT1080V (V) and HT1080I (I) cells were untreated (−TNF) or stimulated (+TNF) with 50 ng/ml TNFα for 7 hr and fixed with 4% paraformaldehyde. The staining was done according to the manufacturer's instructions (Boehringer Mannheim).

COc1cccc2c1C(=O)c1c(O)c3c(c(O)c1C2=O)C[C@@](O)(C(C)=O)C[C@@H]3O[C@H]1C[C@H](N)[C@H](O)[C@H](C)O1 [daunorubicin]
Cell survival after daunorubicin, HT1080I versus control cells ([1]; 0.1 to 2.0 μM for 24 hours, FIG. 3B): reduced in HT1080I cells

CCc1c2c(nc3ccc(OC(=O)N4CCC(N5CCCCC5)CC4)cc13)-c1cc3c(c(=O)n1C2)COC(=O)[C@]3(O)CC [CPT-11, irinotecan]
Activation of NF-κB (NF-κB [2]): determined to activate NF-κB

CC[C@]1(O)C[C@H]2CN(CCc3c([nH]c4ccccc34)[C@@](C(=O)OC)(c3cc4c(cc3OC)N(C=O)[C@H]3[C@@](O)(C(=O)OC)[C@H](OC(C)=O)[C@]5(CC)C=CCN6CC[C@]43[C@@H]65)C2)C1 [vincristine]
Cell killing in HT1080I versus HT1080V cells ([3]; preliminary data, not shown): Cell killing in HT1080I cells was enhanced compared to that in HT1080V cells

CN[C@@H]1C[C@H]2O[C@@](C)([C@@H]1OC)n1c3ccccc3c3c4c(c5c6ccccc6n2c5c31)C(=O)NC4 [staurosporine]
NF-κB nuclear translocation (EMSA) in control cells (NF-κB [4]; HT1080V cells, 1 μM daunorubicin or 50 nM staurosporine): did not activate NF-κB; also recorded: only slight nuclear translocation of NF-κB was evident | Apoptosis induced in IκBα expressing cells versus control ([3]; HT1080I cells, data not shown): not enhanced by the expression of IκBα

IL-1: an activator of NF-κB that does not initiate apoptosis
Effect of pre-treatment on TNFα+CHX-induced apoptosis in HT1080V cells ([1]; 10 ng/ml IL-1β for 5 hours, then 10 μg/ml CHX and TNFα 0-50 ng/ml, FIG. 2A): inhibited TNFα+CHX-induced apoptosis in HT1080V cells | Effect of pre-treatment on CHX+TNF-induced killing in HT1080I cells ([1]; HT1080I cells, NF-κB activation blocked, FIG. 2A): no protective effect

CC(C)C[C@@H](C=O)NC(=O)[C@H](CC(C)C)NC(=O)[C@H](CC(C)C)NC(=O)OCc1ccccc1 [MG132, Z-leu-leu-leu-H] (Cbz-Leu-Leu-Leu-aldehyde)
Enhancement of TNF-induced killing (HT1080V cells): strongly enhanced TNF-induced killing of HT1080V cells

TNFα
Cell survival after TNFα, HT1080I versus HT1080V ([1]; TNFα 20 ng/ml, varying times, FIG. 1A): Cell survival was reduced in HT1080I cells compared to HT1080V controls | Apoptotic morphology by TUNEL staining [5]: only super-repressor IκBα expressing cells showed apoptotic morphology

B1: super-repressor IκBα: mutant IκBα with serine to alanine mutations at residues 32 and 36; binds NF-κB and inhibits nuclear translocation (protein, UniProt P25963 1-317, looked up, variant S32A S36A)
NF-kappa-B inhibitor alpha: MFQAAERPQEWAMEGPRDGLKKERLLDDRHDAGLDAMKDEEYEQMVKELQEIRLEPQEVPRGSEPWKQQLTEDGDSFLHLAIIHEEKALTMEVIRQVKGDLAFLNFQNNLQQTPLHLAVITNQPEIAEALLGAGCDPELRDFRGNTPLHLACEQGCLASVGVLTQSCTTPHLHSILKATNYNGHTCLHLASIHGYLGIVELLVSLGADVNAQEPCNGRTALHLAVDLQNPDLVSLLLKCGADVNRVTYQGYSPYQLTWGRPSTRIQQQLGQLTLENLQMLPESEDEESYDTESEFTEFTEDELPYDDCVFGGQRLTL
Effect on TNF-stimulated NF-κB nuclear translocation (EMSA) (NF-κB [4]; expressed in HT1080I cells, data not shown): efficiently blocked TNF-stimulated NF-κB nuclear translocation
